The values that follow come from patent publication US20230065522A1 (Memorial Sloan Kettering Cancer Center, priority 2015, published 2023).

Series [1] in a line: tissue permeability.
For series [2], the target named is T1, PARP1 (Homo sapiens, UniProt P09874).
T1 construct: endogenous in cells; host or cells: FaDu (human hypopharyngeal SCC, ATCC) subcutaneous xenografts in athymic nude mice
The experiment in a line: correlation of PARPi-fl fluorescence with PARP1 antibody staining in FaDu tumor sections. The class given is in vivo. The settings on record: nuclear area, 222 pairs. As to the method: 222 xy pairs pooled from n=3 tumor sections.
Next, 10 μm cryosections were fixed in 4% paraformaldehyde for 8 minutes, followed by blocking with 3% (v/v) goat serum (Sigma-Aldrich, St. Louis, Mo.) in PBS. Antibodies were diluted in 1% (w/v) BSA and 0.3% (v/v) Triton X-100 in PBS. Anti-PARP1 primary antibody (sc-7150, Santa Cruz Biotechnology, Santa Cruz, Calif.) was incubated overnight at 4° C. (1 μg/ml), followed by three 10-minute washes with PBS and incubation with secondary AlexaFluor® 680 goat anti-rabbit antibody (A21076, Molecular Probes, Eugene, Oreg.) for 1 hour at 4° C. (2 μg/ml). After another 5-minute PBS wash, sections were mounted with Mowiol® (Sigma-Aldrich, St. Louis, Mo.) containing Hoechst 33342 DNA Stain (Sigma-Aldrich, St. Louis, Mo.). […] Incubating sections with either a nonspecific rabbit IgG or PBS instead of primary antibody confirmed binding specificity.

The subject of series [3] is FaDu tumors. The experiment in a line: fluorescence endomicroscopy of excised FaDu tumors and control tissues. The class given is in vivo, mice. The settings on record: 90 minutes after PARPi-fl injection. On the procedure: FaDu xenografts were imaged with a fluorescence endoscope that is available for both clinical and preclinical imaging (Cellvizio, Mauna Kea Technologies, Paris, France). It provides cellular to subcellular resolution and has a flexible confocal microprobe that enables versatile imaging. […] The microprobe was slowly moved over the tumor, tongue, or muscle, while a real-time video was recorded using a 488 nm excitation beam. The videos were converted to grayscale and the intensity was measured in 10 frames per video using ImageJ 1.49e Software. Topical application of PARPi-fl

Series [4] concerns U87 cells. Nature of the series: MTT assay. The class given is cell-based. The settings on record: U87 glioblastoma cells. For orientation: Tetrazolium assays rely on reduction of a dye to a coloured formazan, in cell work by metabolically active cells.
Series [5] relates to U251 cells. The experiment in a line: MTT assay. Type of series: cell-based. The settings on record: U251 glioblastoma cells.
Series [6] has as its system Ca127 cells. The experiment in a line: flow cytometry of PARPi-fl uptake with and without irradiation. The class given is cell-based, human. As to the method:
(§1) First, cells were irradiated with 0, 2, 4 and 10 Gy in 25 cm^2 culture flasks using the J.L. Shepherd Cesium irradiator (J.L. Shepherd, San Fernando, Calif.) at a dose rate of 174 cGy/min. […] Following a wash with PBS, cells were trypsinized, counted, and portions of 0.5×10^6 cells of the single cell suspension were aliquoted into 1.5 ml Eppendorf tubes (Eppendorf, Hamburg, Germany). For each time point and irradiation dose, samples were either left unstained, were stained with PARPi-fl or olaparib/PARPi-fl. […] For staining, cells were washed with 1 ml FACS buffer (1% BSA (w/v) in PBS). […] Next, cells were centrifuged, the supernatant was aspirated and cells were re-suspended in 0.5 ml FACS buffer and transferred to 5 ml round bottom flow cytometry tubes (BD Biosciences, Bedford, Mass.) through a 40 μm strainer to remove doublets and left on ice until measurement in the flow cytometer (LSR® II, BD Biosciences, Bedford, Mass.). For each measurement, 10,000 events were counted. Raw data were processed in FlowJo software in order to calculate the changes in PARPi-fl uptake after irradiation. Cell clumps and debris were eliminated using the corresponding gates (forward and side scatter) for the unstained cell population. The gates were applied to all stained samples. PARPi-fl fluorescence was imaged in the FITC channel against side scatter (area).
(In general: In flow cytometry, cells or beads pass a laser one at a time.)

The subject of series [7] is FaDu cells. The description is as above. The class given is cell-based, human. As to the method:
as §1

Series [8] deals with orthotopic tongue tumors (FaDutdTomato). The experiment in a line: topical application of PARPi-fl on orthotopic tongue tumors, confocal microscopy. Type of series: in vivo, mice. The settings on record: one minute application. On the procedure:
For topical application, the tongues were dipped into a well of a 96-well plate filled with the respective incubation solution. […] This was followed by cleaning of the tongue with an alcohol pad to remove residual unbound compound. The animals were imaged in the IVIS Spectrum before and after PARPi-fl application using the appropriate filter sets for detection of PARPi-fl and the tdTomato fluorescent protein. Spectral unmixing was used to separate the signals for tdTomato, PARPi-fl and autofluorescence. The tdTomato fluorescent protein allows in vivo localization of the tumor. For comparability, all images were scaled to the same maximum radiant efficiency. Imaging was repeated with sections of the excised tongues after cryofixation. […] Adjacent sections were H&E stained for morphological evaluation.

The test system of series [9] is tumor cells. The experiment in a line: in vivo confocal imaging of PARPi-fl in tumor cells (cell population drug kinetics). The text has this:
Concentration rapidly increases after a bolus dose followed by a slow decay (top).

Series [10] is described as follows: toxicity after local administration on the oral mucosa. Type of series: in vivo. The settings on record: mice. On the procedure: […]. Mice received blood draws after 24 h and 48 h post administration, and were then sacrificed to receive a full necropsy.
A short description of series [11]: clearance from circulation and metabolic stability after IV injection. The class given is in vivo, mice.
A short description of series [12]: pharmacokinetic profile of ^18F-PARPi in a tumor-free mouse. The class given is in vivo. As to the method: Bone uptake amounts for 6% ID/g. While low, imaging in larger mammals typically reduces bone-uptake further due to slower metabolic degradation.
The blood half-life, serum stability, and metabolic stability of ^18F-PARPi was determined. Blood half-lives were determined after the injection of ˜15 μCi of the ^18F-labeled species into C57BL/6J (B6) mice and blood (5-10 μL) drawn at different time points via saphenous vein bleeds. FIGS. 13A-13B show an image acquired at 60 minutes. The drawn blood was both counted as well as analyzed using a HPLC-MS equipped with both a fluorescence detector as well as a parallel radiodetector. Organs were homogenized. Next, the bimodal imaging agent was extracted and radioactive/fluorescent metabolites were analyzed using HPLC. All major organs were weighed, and their […] activity was measured using a scintillation counter. The injected dose per gram tissue (% ID/g) was determined.

The subject of series [13] is subcutaneous FaDu tumors. Nature of the series: ex vivo epifluorescence imaging of PARPi-fl uptake, subcutaneous FaDu xenografts and normal tissues.
Description: Animals were sacrificed 90 minutes post-injection and tumors, tongues, trachea, and muscle were excised and imaged using epifluorescence imaging (IVIS Spectrum, PerkinElmer, Waltham, Mass.). […] This measure carries the unit [p/s/cm^2/sr]/[μW/cm^2] and is defined as the number of photons per second leaving a square centimeter of tissue and radiating into a solid angle of one steradian (sr).
The conditions of series [14]: cited from earlier work.
[15] abbreviates: 48 hours after 10 Gy irradiation.
[16] abbreviates: oral mucosa, 20 μl of 400 μM solution.
The mark [17] stands for this setting: topical oral mucosa, 29 nmol in 50 μL, 10 min.
[18] abbreviates: non-irradiated, olaparib co-incubated with PARPi-fl (50-fold excess).

T1 sequence (P09874 whole entry, species assumed): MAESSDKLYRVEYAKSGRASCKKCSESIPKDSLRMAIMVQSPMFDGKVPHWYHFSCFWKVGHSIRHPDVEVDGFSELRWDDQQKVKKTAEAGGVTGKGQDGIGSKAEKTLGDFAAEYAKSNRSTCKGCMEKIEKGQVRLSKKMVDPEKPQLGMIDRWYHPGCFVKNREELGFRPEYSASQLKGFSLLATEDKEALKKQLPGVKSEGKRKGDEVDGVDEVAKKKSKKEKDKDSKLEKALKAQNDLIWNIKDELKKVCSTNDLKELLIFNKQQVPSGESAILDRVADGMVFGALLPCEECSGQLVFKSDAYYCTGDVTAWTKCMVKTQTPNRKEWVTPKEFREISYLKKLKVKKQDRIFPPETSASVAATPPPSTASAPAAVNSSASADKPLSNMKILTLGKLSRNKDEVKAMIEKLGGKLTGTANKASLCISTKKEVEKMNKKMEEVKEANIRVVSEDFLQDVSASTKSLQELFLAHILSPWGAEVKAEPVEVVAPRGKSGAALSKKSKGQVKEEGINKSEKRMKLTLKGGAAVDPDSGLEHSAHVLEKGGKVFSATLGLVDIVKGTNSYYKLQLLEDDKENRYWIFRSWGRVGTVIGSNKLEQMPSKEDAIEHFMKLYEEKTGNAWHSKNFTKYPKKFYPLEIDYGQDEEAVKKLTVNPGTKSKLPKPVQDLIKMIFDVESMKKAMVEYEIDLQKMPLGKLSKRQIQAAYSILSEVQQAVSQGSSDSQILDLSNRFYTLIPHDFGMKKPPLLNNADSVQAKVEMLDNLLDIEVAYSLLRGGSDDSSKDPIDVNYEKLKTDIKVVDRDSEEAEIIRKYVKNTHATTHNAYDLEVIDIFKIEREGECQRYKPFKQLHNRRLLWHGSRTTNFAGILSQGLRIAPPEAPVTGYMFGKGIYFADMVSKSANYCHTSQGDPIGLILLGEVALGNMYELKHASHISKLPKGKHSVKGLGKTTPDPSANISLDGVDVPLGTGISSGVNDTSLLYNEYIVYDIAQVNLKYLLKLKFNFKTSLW

A word on the IC50: it is the point on the concentration scale where inhibition reaches its midpoint. A low value points to greater potency in that assay. In [1], `Cc1cc(C)n2c1C=C1C=CC(CCC(=O)N3CCN(C(=O)c4cc(Cc5n[nH]c(=O)c6ccccc56)ccc4F)CC3)=[N+]1[B-]2(F)F` [PARPi-fl] showed a tissue permeability of 4.7±2.5 μm/s. Also, the “co-localization with PARP1 antibody staining, Rcoloc.” value in series [2] is on record as 0.986. This compound also registered an average signal intensity in series [3] (FaDu tumors) of 35.4±8.6 AU. In series [3] (thigh muscle), this compound showed an average signal intensity of 15.1±2.4 AU. This compound came in with an average signal intensity in [3] (tongue) of 18.5±6.9 AU. In series [4], this compound showed an IC50 of 24 µM. Also, in series [5], the concentration for half-maximal inhibition (IC50) is 5.5 µM. In addition, in series [6] (setting [15]), the “PARPi-fl signal compared to non-irradiated cells” value is 136.0±16.6%. In series [7] (setting [15]), the “PARPi-fl signal compared to non-irradiated cells” value turned out to be 145.4±7.3%. Further, the “penetration depth into tumor tissue” value in series [8] was “up to 300 μm”. In [9] (tumor cells in vivo after bolus dose, FIG. 9B), the “average cellular drug concentration” value was found to be 1.2 µM. Besides, in series [9] (uptake within tumor tissue), the “cells targeted within tumor tissue” value is “greater than 99.8%” and the “concentration in targeted tumor cells” value was determined as 1900 ± 500 nM. In addition, in series [10] (setting [16]), the “changes in clinical chemical and hematologic parameters” value is given as “no changes”; the local irritation entry is “no local irritation”. In series [10] (setting [17]), the ALP worked out at 90 ± 18 IU/L, the “ALT (SGPT)” value turned out to be 31 ± 6 IU/L, the “AST (SGOT)” value was found to be 67 ± 4 IU/L and the Albumin is 2.7 ± 0.2 g/dL. Also, in series [10] (setting [17]), the BA % came to 0.2 ± 0.3%, the BASOPHILS was 0.01 ± 0.02 K/μL, the BUN worked out at 28 ± 2 mg/dL and the Calcium stood at 9.6 ± 0.2 mg/dL. In series [10] (setting [17]), this compound had a Chloride of 114 ± 1 mEq/L, a Cholesterol of 86 ± 8 mg/dL, a Creatinine of 0.24 ± 0.01 mg/dL and an EO % of 5.5 ± 1.0%. In series [10] (setting [17]), this compound showed an EOSINOPHIL of 0.64 ± 0.55 K/μL, a GGT of 0 IU/L, a Globulin of 2.3 ± 0.7 g/dL and a Glucose of 229 ± 54 mg/dL. In series [10] (setting [17]), this compound yielded an HB of 15.1 ± 0.9 g/dL, an HCT of 50.4 ± 2.9%, an LY % of 57.0 ± 10.9% and an LYMPHOCYT of 3.34 ± 1.07 K/μL. In [10] (setting [17]), the MCH was 14.7 ± 0.4 pg, the MCHC stood at 30.0 ± 0.1 g/dL, the MCV turned out to be 49.3 ± 1.2 fL and the MO % is 1.9 ± 0.8%. For the same compound, in [10] (setting [17]), the MONOCYTE came out at 0.10 ± 0.04 K/μL, the MPV worked out at 6.1 ± 0.2 fL, the NE % worked out at 29.5 ± 4.0% and the NEUTROPHI is 1.69 ± 0.04 K/μL. In addition, in [10] (setting [17]), the PLT is listed as 1077 ± 171 K/μL, the Phosphorus amounted to 6 ± 1 mg/dL, the Potassium was 3.8 ± 0.7 mEq/L and the RBC is 10.24 ± 0.62 M/μL. For the same compound, in series [10] (setting [17]), the RDW amounted to 23.4 ± 0.6%, the Sodium worked out at 151 ± 3 mEq/L, the “Total Bilirubin” value stood at 0.1 ± 0.0 mg/dL and the “Total Protein” value worked out at 4.9 ± 0.8 g/dL. Besides, the WBC in [10] (setting [17]) was 5.78 ± 0.90 K/μL. Moreover, in series [11] (mice, 30 min post injection), the metabolites result is on record as “less than 50%”. Also, the β half-life in [11] (mice, IV injection, clearance from circulation) is 1.47 h. In [11] (post injection), the “time of peak uptake in subcutaneous tumors” value stood at 30 min.

In [12], `CC1=CC(C)=[N+]2C1=Cc1ccc(CCC(=O)N3CCN(C(=O)c4cc(Cc5n[nH]c(=O)c6ccccc56)ccc4F)CC3)n1[B-]2(F)[18F]` (stereo not shown) [^18F-PARPi] came in with a bone uptake of 6 % ID/g.

With `O=C(c1cc(Cc2n[nH]c(=O)c3ccccc23)ccc1F)N1CCN(C(=O)C2CC2)CC1` [olaparib, 4-[(3-[(4-cyclopropyl-carbonyl)piperazin-4-yl]carbonyl)-4-fluorophenyl]methyl (2H)phthalazin-1-one], the IC50 stood at 28 µM in series [4] (Homo sapiens, U-87 MG) and 8 µM in series [5] (Homo sapiens, U-251). Further, the “effect on PARPi-fl uptake” value in series [6] (setting [18]) and in series [7] (setting [18]) was “almost completely suppressed” each time. For the same compound, the “inhibition of PARPi-fl tumor uptake by xenografts” value in [13] (coinjection with PARPi-fl) is listed as “almost completely inhibited”. Besides, the “reduction of the fluorescent signal of the tumor” value in series [13] (olaparib injected before PARPi-fl (50-fold excess, 30 min prior)) came to 60%. The excreted entry in [14] (^14C-labeled olaparib, within 7 days) is recorded as “More than 86%”. Also, the terminal half-life in series [14] (after a 400 mg dose) was 11.9 h. Moreover, the tolerability result in [14] (approved dose and schedule, 400 mg orally twice daily) is “well tolerated”. Besides, the “apparent volume of distribution” value in series [14] (oral administration) is given as “more than 150 L”. In series [14] (oral administration), the “time of peak plasma concentrations after dosing” value is 1 to 3 h.
